Test results taken from US20250034216A1, “STEREOSELECTIVE COVALENT LIGANDS FOR ONCOGENIC AND IMMUNOLOGICAL PROTEINS” (The Scripps Research Institute, priority 2021, published 2025).

How the values were obtained:
Test in all cases: IA-DTB cysteine engagement
Assay type in all cases: binding
Details in all cases: 22Rv1 cells, 20 μM probe, 1 h, relative to DMSO
HARS2_C173 = molecular target: T1, HARS2_C173 (Homo sapiens, UniProt P49590)
T1 construct: endogenous in cells; host or cells: 22Rv1
T1 sequence (P49590 34-506): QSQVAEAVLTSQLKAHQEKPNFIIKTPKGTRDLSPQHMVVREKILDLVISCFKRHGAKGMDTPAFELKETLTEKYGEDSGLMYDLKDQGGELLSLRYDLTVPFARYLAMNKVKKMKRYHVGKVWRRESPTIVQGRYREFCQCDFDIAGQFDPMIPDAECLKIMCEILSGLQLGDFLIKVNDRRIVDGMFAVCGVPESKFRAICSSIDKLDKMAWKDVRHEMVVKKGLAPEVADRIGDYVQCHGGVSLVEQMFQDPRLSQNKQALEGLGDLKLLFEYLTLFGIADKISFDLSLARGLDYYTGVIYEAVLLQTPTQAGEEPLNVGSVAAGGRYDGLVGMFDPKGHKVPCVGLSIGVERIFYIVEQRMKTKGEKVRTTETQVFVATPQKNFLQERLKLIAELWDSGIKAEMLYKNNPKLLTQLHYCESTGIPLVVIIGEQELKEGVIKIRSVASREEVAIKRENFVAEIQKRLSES
In short: (§1)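 Competitive chemoproteomics: residual cysteine reactivity toward IA-DTB in lysates from probe-treated cells was quantified by TMT reporter ions relative to DMSO-treated controls. Replicates sharing cell line, probe, concentration and duration were averaged.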

MRPS30_C204 = molecular target: T2, MRPS30_C204 (Homo sapiens, UniProt Q9NP92)
T2 construct: endogenous in cells; host or cells: 22Rv1
In short: as §1

CKAP4_C100 = molecular target: T3, CKAP4_C100 (Homo sapiens, UniProt Q07065)
T3 construct: endogenous in cells; host or cells: 22Rv1
T3 sequence (Q07065 1-602): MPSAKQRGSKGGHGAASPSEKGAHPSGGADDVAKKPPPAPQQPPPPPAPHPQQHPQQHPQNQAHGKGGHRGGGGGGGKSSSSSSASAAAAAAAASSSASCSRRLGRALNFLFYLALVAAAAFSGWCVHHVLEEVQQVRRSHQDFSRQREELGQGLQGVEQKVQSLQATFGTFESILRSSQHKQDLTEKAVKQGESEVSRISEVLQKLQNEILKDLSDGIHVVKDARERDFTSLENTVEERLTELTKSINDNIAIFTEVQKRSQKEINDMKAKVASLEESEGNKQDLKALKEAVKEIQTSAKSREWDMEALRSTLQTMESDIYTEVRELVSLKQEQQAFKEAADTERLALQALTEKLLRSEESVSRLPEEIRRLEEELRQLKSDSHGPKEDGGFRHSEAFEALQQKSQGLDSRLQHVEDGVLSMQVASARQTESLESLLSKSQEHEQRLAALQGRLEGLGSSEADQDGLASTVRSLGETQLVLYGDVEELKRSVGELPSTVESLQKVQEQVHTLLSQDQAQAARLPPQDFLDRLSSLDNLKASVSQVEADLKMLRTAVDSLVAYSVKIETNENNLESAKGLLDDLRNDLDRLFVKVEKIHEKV
In short: as §1

NELFCD_C169 = molecular target: T4, NELFCD_C169 (Homo sapiens, UniProt Q8IXH7)
T4 construct: endogenous in cells; host or cells: 22Rv1
T4 sequence (Q8IXH7 whole entry): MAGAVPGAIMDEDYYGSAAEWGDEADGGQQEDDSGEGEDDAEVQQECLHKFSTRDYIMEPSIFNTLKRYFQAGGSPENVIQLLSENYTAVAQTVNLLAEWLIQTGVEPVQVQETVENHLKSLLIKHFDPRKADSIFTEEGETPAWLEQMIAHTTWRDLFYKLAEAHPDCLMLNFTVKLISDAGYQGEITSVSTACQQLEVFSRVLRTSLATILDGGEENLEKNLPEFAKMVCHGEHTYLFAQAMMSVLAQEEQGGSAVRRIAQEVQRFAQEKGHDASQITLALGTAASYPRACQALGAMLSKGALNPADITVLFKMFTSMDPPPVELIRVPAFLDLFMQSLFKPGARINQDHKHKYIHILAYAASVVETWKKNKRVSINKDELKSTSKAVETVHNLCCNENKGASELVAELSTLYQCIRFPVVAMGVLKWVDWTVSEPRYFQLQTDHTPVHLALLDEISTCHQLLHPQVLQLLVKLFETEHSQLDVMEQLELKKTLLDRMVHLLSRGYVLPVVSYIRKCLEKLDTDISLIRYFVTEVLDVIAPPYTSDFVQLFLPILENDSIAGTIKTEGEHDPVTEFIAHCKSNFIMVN
In short: as §1

PRXL2A_C88 = molecular target: T5, PRXL2A_C88 (Homo sapiens, UniProt Q9BRX8)
T5 construct: endogenous in cells; host or cells: 22Rv1
T5 sequence (Q9BRX8 1-229): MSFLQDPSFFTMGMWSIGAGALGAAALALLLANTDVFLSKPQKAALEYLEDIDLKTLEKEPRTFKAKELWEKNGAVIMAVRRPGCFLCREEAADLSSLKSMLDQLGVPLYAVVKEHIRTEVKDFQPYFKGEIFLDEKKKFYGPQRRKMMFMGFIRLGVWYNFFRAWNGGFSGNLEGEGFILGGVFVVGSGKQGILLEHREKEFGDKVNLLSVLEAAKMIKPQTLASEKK
In short: as §1

% engagement HARS2_C173 (HARS2_C173) [%] | % engagement MRPS30_C204 (MRPS30_C204) [%] | % engagement CKAP4_C100 (CKAP4_C100) [%] | % engagement NELFCD_C169 (NELFCD_C169) [%] | % engagement PRXL2A_C88 (PRXL2A_C88) [%] | SMILES
84.75 | 74.5 | 84 | 51 | 96.25 | C=CC(=O)N1C[C@@H](c2ccc(Br)cc2)[C@H]1C(=O)Nc1cccc2cccnc12 [MY-1A, (2S,3R)-1-acryloyl-3-(4-bromophenyl)-N-(quinolin-8-yl)azetidine-2-carboxamide]
63.75 | −37 | 90.25 | 41.75 | 97.25 | C=CC(=O)N1C[C@H](c2ccc(Br)cc2)[C@@H]1C(=O)Nc1cccc2cccnc12 [MY-1B, (2R,3S)-1-acryloyl-3-(4-bromophenyl)-N-(quinolin-8-yl)azetidine-2-carboxamide]
35.25 | 1 | 78.75 | 40.75 | 95 | C=CC(=O)N1C[C@H](c2ccc(Br)cc2)[C@H]1C(=O)Nc1cccc2cccnc12 [MY-3A, (2S,3S)-1-acryloyl-3-(4-bromophenyl)-N-(quinolin-8-yl)azetidine-2-carboxamide]
35.75 | −41.5 | 93.75 | 69.5 | 97.25 | C=CC(=O)N1C[C@H](c2ccc(Br)cc2)[C@H]1C(=O)Nc1cccc2cccnc12 [MY-3B, (2S,3S)-1-acryloyl-3-(4-bromophenyl)-N-(quinolin-8-yl)azetidine-2-carboxamide]
